SMILES strings stand for the structures.

The experiment relates to hResistin. The experiment is described as follows: Ability to inhibit TNF-α secretion by hResistin (THP-1, ELISA). The format is cell-based. The conditions noted are these: THP-1 human monocyte cell line; for IC50: human recombinant Resistin, ELISA OD450 nm, 1 hour treatment. The method, then: Using THP-1 (human monocyte) cell line and ELISA system, the abilities to inhibit TNF-α secretion by hResistin (IC50) were evaluated for the compounds prepared in the above examples. The compounds target hResistin, and the abilities of the compounds to inhibit TNF-α secretion by human recombinant Resistin in human monocyte (THP-1) were evaluated. The abilities to inhibit TNF-α secretion were assessed by ELISA quantifying the amount of antibody with the enzyme as a marker using an antigen-antibody reaction.
Specifically, the cultured cells were spun down at 1,500 rpm for 2 minutes, the supernatant was removed and then the cells were re-suspended in 10 mL of complete RPMI-1640 medium. After counting the number of cells using Luna™ Automated Cell Counter, cells were plated into 96-well assay plates at 50 μL per well. The cells cultured for 24 hours were treated with the test substances in accordance with the concentration for 1 hour, and then the supernatant was collected and subjected to ELISA assay. In the ELISA assay, the absorbance at 450 nm (OD450 nm) was measured using Flexstation 3. The ability of each test substance to inhibit TNF-α secretion (IC50) and its inhibition at a concentration of 5 uM are shown in Table 1 below.
For orientation: An ELISA detects its analyte on a solid surface through an enzyme-linked reagent.

With `CCN1CCN(C(c2ccc(C(F)(F)F)cc2)c2c(-c3ccccc3)[nH]c3ccccc23)CC1` (stereo not drawn) [Example 19, 3-((4-ethylpiperazin-1-yl)(4-(trifluoromethyl)phenyl)methyl)-2-phenyl-1H-indole], the IC50 (commonly the midpoint of a concentration-inhibition curve) is 1700 nM.
As for `Fc1ccc(C(c2c(-c3ccccc3)[nH]c3ccccc23)N2CCOCC2)cc1` (stereo not drawn) [Example 9, 4-((4-fluorophenyl)(2-phenyl-1H-indol-3-yl)methyl)morpholine], the IC50 is 3500 nM.
Turning to `CN1CCN(C(c2ccc(F)cc2)c2c(-c3ccc(Cl)cc3)[nH]c3ccccc23)CC1` (stereo not drawn) [Example 15, 2-(4-chlorophenyl)-3-((4-fluorophenyl)(4-methylpiperazin-1-yl)methyl)-1H-indole], the IC50 was found to be 1500 nM.
Same read-out and setting: in the case of `CN1CCN(C(c2ccc(C(F)(F)F)cc2)c2c(-c3ccccc3)[nH]c3ccccc23)CC1` (stereo not drawn) [Example 8, 3-((4-methylpiperazin-1-yl)(4-(trifluoromethyl)phenyl)methyl)-2-phenyl-1H-indole] it was 1000 nM; in that of `CN1CCN(C(c2cccc(F)c2)c2c(-c3ccc(Cl)cc3)[nH]c3ccccc23)CC1` (stereo not drawn) [Example 14, 2-(4-chlorophenyl)-3-((3-fluorophenyl)(4-methylpiperazin-1-yl)methyl)-1H-indole], 3200 nM.
In the case of `CN1CCN(C(c2ccc(Cl)cc2)c2c(-c3ccccc3)[nH]c3ccccc23)CC1` (stereo not drawn) [Example 2, 3-((4-chlorophenyl)(4-methylpiperazin-1-yl)methyl)-2-phenyl-1H-indole], the IC50 came to 4400 nM. Besides, the inhibition (in general, the relative decrease from the control value, in per cent) at 5 µM (TNF-α secretion by hResistin, concentration 5 uM) came to 70.3%.
With `CN1CCN(C(c2cccc(F)c2)c2c(-c3ccccc3)[nH]c3ccccc23)CC1` (stereo not drawn) [Example 7, 3-((3-fluorophenyl)(4-methylpiperazin-1-yl)methyl)-2-phenyl-1H-indole], the IC50 turned out to be 2000 nM.
With `CN1CCN(C(c2ccccc2)c2c(-c3ccccc3)[nH]c3ccccc23)CC1` (stereo not drawn) [Example 6, 3-((4-methylpiperazin-1-yl)(phenyl)methyl)-2-phenyl-1H-indole], the IC50 stood at 2800 nM.
For `CCN1CCN(C(c2ccc(F)cc2)c2c(-c3ccccc3)[nH]c3ccccc23)CC1` (stereo not drawn) [Example 18, 3-((4-ethylpiperazin-1-yl)(4-fluorophenyl)methyl)-2-phenyl-1H-indole], the IC50 amounted to 1700 nM.
The same measure, in the same setting: in the case of `CN1CCN(C(c2ccc(Cl)cc2)c2c(-c3ccc(Cl)cc3)[nH]c3ccccc23)CC1` (stereo not drawn) [Example 12, 2-(4-chlorophenyl)-3-((4-chlorophenyl)(4-methylpiperazin-1-yl)methyl)-1H-indole] it was 400 nM; in that of `CN1CCN(C(c2ccc(F)cc2)c2c(-c3ccccc3)[nH]c3ccccc23)CC1` (stereo not drawn) [Example 10, 3-((4-fluorophenyl)(4-methylpiperazin-1-yl)methyl)-2-phenyl-1H-indole], 1700 nM.

The record behind these values is patent US10597362B2, “3-aminoalkylated indole derivative, method for the preparation thereof, and pharmaceutical composition comprising the same” (Seoul National University Hospital, priority 2016, dated 2020).
